Patent publication US9040261B2, “Compounds as L-cystine crystallization inhibitors and uses thereof” (NEW YORK UNIVERSITY, priority 2009, dated 2015)
“Also recorded” adds a separate entry of the source.

Experiments:
[1] = Real time in situ AFM step velocity measurements, static conditions
Protocol: A Digital Instruments (Santa Barbara, Calif.) Nanoscope IIIa Multimode system was used for topographical and lattice imaging. All measurements were performed in contact mode using Veeco NP_B Si3N4 cantilever tips with a spring constant of 0.12N/m (triangular, 196 μm length, 41 μm width) on a glass cantilever holder, and a liquid cell was created for in situ step velocity measurements. All L-cystine crystals for AFM measurements were prepared by method 1. Crystals were transferred onto an AFM specimen disk coated with partially cured (1 hr) UV-curable optical cement (Type SK-9, EMS Acquisition Corp.) by gently pressing the disk against hexagonal platelets or L-cystine needles isolated by filtration (Whatman Nuclepore membrane, 8 μm). The (0001) face of hexagonal platelets was exposed normal to the disk for AFM analysis with growth occurring along equivalent {1010} faces in the lateral directions, while the sides of L-cystine needles were exposed normal to the disc. The partially cured polymer with adhered crystals was completely cured by additional UV radiation (2 hrs) prior to analysis. Measurements of individual step heights for hexagonal L-cystine crystals were acquired in air (contact mode) at a scan rate of 1.00 Hz and 256 samples per line over a 15×15 μm^2 surface area. Integral and proportional gains were set to the highest possible values without obtaining feedback. Four hexagonal crystals (5 areas per crystal) were analyzed for statistical step height distributions, which were calculated from >10^3 individual steps. Lattice-resolved images of crystal surfaces were acquired in water (contact mode) using a scan rate of 112 Hz over a 12×12 nm^2 area.
Real time in situ step velocity measurements of L-cystine growth were assessed along six structurally-equivalent {1010} faces of the hexagonal structure. A liquid cell was created with the glass cantilever tip holder, and working solutions were injected through a 1-mL syringe. Prior to injecting the growth medium (i.e. supersaturated L-cystine solution), crystals were etched with deionized water in the fluid cell for one hour to remove amorphous deposits or impurities that may be present on the surface. Supersaturated solutions (0.5 g/L) were generated by adding L-cystine to deionized water, boiling the solution on a heating mantle for 20 min to completely dissolve the solute, and allowing the solution to cool for 20 min on the heating mantle before transferring the solution (via syringe) to the AFM fluid cell. […]
The effect of additives on crystal growth rates was investigated. […] For each measurement, growth was first assessed in the absence of additive, then in the presence of additive on the identical area of the crystal surface to analyze relative changes in step velocity. […]

[2] = AFM step velocity and hillock imaging with L-cystine diesters under continuous flow
Protocol: Atomic force microscopy was performed with a Digital Instruments (Santa Barbara, Calif.) Nanoscope Ma Multimode system. All measurements were performed in a cell designed to contain liquids for in situ imaging, including step velocity measurements. All measurements were performed in contact mode using Veeco NP_B Si3N4 tips on silicon nitride cantilevers with a spring constant of 0.12N/m (triangular, 196 μm length, 41 μm width). L-cystine crystals (hexagonal form) were transferred onto an AFM specimen disk coated with partially cured (1 hr) UV-curable optical cement (Type SK-9, EMS Acquisition Corp.) by gently pressing the disk against hexagonal platelets collected by filtration (Whatman Nuclepore membrane, 8 μm). The (001) faces of the hexagonal plates naturally aligned parallel with the specimen disk such that the velocity of the equivalent {100} steps could be measured readily by AFM. The partially cured polymer with the adhered crystals was cured completely by additional UV radiation (2 hrs) prior to analysis. The mounted L-cystine crystals were etched slightly by immersion in deionized water for 30 sec at 60° C. to remove amorphous deposits or impurities that may be present on the surface. Step velocities on the hexagonal L-cystine crystals were measured by AFM using a fluid cell containing an aqueous solution, supersaturated with L-cystine (2 mM), introduced to the cell via a syringe. Step velocities were determined by measuring the distance of the steps from a reference point, usually the dislocation core, in consecutive deflection images acquired at periodic intervals, ranging from 9-14 sec. Measurements were acquired under continuous flow of fresh solution in order to maintain constant supersaturation and additive concentration. […] The step velocities, which correspond to the crystal growth rates, were measured with and without inhibitor for each pair.

[3] = dosages between 100 mg/L and 20 g/L per day; ATP, reactive oxygen species levels, cell viability; cited from earlier work

Structure (SMILES): COC(=O)[C@@H](N)CSSC[C@H](N)C(=O)OC.Cl.Cl [CDME, Cystine Dimethyl Ester Dihydrochloride]
- advancement of higher {1010} steps ([1]; 5.0 g/L CDME, 0.5 g/L L-cystine, step heights >0.6 nm, larger than 1 nm, Dihydrochloride): suppresses; also recorded: completely suppressed
- Step velocity of 1-nm steps ([1]; large excess of CDME (5 g/L), 29 nm/min in the absence of additive): 7 nm/min
- order of step roughening, corresponding to the trend in inhibition ([2]; 0.015 mM inhibitor, 2 mM L-cystine): L-CDME>L-CDEE>L-CDIE>L-CDTE
- inhibition of step velocity compared among four L-cystine diesters ([2]; 0.015 M inhibitor): best inhibitor
- toxicity in cell culture and in vivo animal studies [3]: possible adverse affects
